Experimental data published in paper PMC7699860 (Molecules, 2020).

Experiments:
[1] = test system: poly(A)2poly(U) (RNA triple helix) (RNA, polymer) A/U; assay: absorbance titration; conditions: Na+ (NaCl 0.1 M); NaCac 2.5 mM, pH 7.0
[2] = test system: Tel-23 (DNA telomeric G4) (DNA, G4) TAGGGTTAGGGTTAGGGTTAGGG; assay: absorbance titration
[3] = test system: poly(A)poly(U) (RNA, polymer) A/U; assay: absorbance titration; conditions: Na+ (NaCl 0.1 M), NaCac 2.5 mM
[4] = test system: poly(A) (RNA, polymer) A; assay: absorbance titration; conditions: Na+ (NaCl 0.1 M), NaCac 2.5 mM, pH 7.0
[5] = molecular target: T1, bovine serum albumin (BSA) (Bos taurus, UniProt P02769); assay: BSA intrinsic fluorescence quenching titration ([…] °C), […] model; no adduct by ESI-MS; format: binding
T1 construct: gene ALB
T1 sequence (P02769 25-607): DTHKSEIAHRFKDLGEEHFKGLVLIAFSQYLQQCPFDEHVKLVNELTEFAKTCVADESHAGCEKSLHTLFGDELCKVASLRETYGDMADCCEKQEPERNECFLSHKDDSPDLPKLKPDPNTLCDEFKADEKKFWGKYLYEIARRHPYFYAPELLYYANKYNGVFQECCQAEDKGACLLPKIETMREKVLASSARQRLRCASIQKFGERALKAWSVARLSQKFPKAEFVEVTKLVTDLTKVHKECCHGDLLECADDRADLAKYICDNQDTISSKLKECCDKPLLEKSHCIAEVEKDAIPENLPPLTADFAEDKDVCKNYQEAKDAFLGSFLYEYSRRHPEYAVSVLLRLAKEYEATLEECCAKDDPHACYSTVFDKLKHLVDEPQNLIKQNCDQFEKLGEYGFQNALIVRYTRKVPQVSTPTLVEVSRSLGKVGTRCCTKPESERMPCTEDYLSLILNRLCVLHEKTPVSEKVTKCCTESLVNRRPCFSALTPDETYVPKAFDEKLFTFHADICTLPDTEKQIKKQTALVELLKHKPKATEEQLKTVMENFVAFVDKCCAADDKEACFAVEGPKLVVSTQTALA

CCN1[C]N(Cc2c3ccccc3cc3ccccc23)C=C1.CCN1[C]N(Cc2c3ccccc3cc3ccccc23)C=C1.[Ag+]
binding [1]: no | binding ([2]; very slight spectral variations, conclusions state no interaction): weak | Kpoly(A)poly(U) ([3]; pH 7.0, 25.0 °C, apparent, per base pair, per base): (1.5 ± 3) × 10^3 M^-1 | binding [4]: no

CCN1[C]N(Cc2c3ccccc3cc3ccccc23)C=C1.CCN1[C]N(Cc2c3ccccc3cc3ccccc23)C=C1.[Au+]
binding ([2]; unselective outer binding, fit not converging): yes | binding ([3]; pH 7.0, external binding, fit not converging): yes | binding ([4]; external binding, fit not converging): yes

CCn1ccn(Cc2c3ccccc3cc3ccccc23)[c]1=[Ag]([Cl])=[c]1n(CC)ccn1Cc1c2ccccc2cc2ccccc12 [[Ag(EIA)2]Cl, bis(1-(anthracen-9-ylmethyl)-3-ethylimidazol-2-ylidene) silver chloride]
BSA intrinsic fluorescence quenching titration (15-50 °C), 1:1 model; no adduct [5]: the silver complex interacts with the protein but with a reversible weak process based on electrostatics
